“And” between values parts separate entries of the source, which are not always exact repeats. Identical values can stand only once.
What was measured:
[1] = molar heat capacity at constant pressure
[2] = Closed cell (Static) method

NCCO [2-aminoethan-1-ol]
[1], 100 kPa, Ideal gas
Conditions	molar heat capacity at constant pressure [J/K/mol]
100 K	42.58
150 K	53.66
200 K	64.26
250 K	74.41
273.15 K	79.16
298.15 K	84.38
300 K	84.78
400 K	106.54
500 K	127.9
600 K	146.98
700 K	163.08
800 K	176.25
900 K	186.86
1000 K	195.39

[1], 101.33 kPa, Metastable liquid, Large sample (1 g) DSC
Conditions	molar heat capacity at constant pressure
265.75 K	160.55 J/K/mol
270.85 K	161.8 J/K/mol
275.96 K	162.46 J/K/mol
281.07 K	163.71 J/K/mol
286.17 K	164.54 J/K/mol
291.28 K	165.54 J/K/mol and 165.87 J/K/mol
296.38 K	166.54 J/K/mol and 167.29 J/K/mol
301.49 K	168.12 J/K/mol and 167.79 J/K/mol
306.59 K	169.2 J/K/mol and 169.12 J/K/mol
311.69 K	170.28 J/K/mol and 170.53 J/K/mol
316.8 K	171.36 J/K/mol and 171.69 J/K/mol
321.9 K	172.61 J/K/mol and 173.11 J/K/mol
327.01 K	174.1 J/K/mol and 174.27 J/K/mol
332.12 K	175.68 J/K/mol and 175.35 J/K/mol
337.22 K	176.68 J/K/mol and 177.18 J/K/mol
342.33 K	178.1 J/K/mol and 178.59 J/K/mol
347.43 K	179.51 J/K/mol and 179.43 J/K/mol
352.54 K	181.26 J/K/mol and 181.34 J/K/mol

vapor or sublimation pressure, [2]
Conditions	Crystal	Metastable liquid
258.17 K	0.00078 kPa and 0.00077 kPa and 0.00076 kPa	–
263.17 K	0.00142 kPa	–
268.17 K	0.00264 kPa and 0.00265 kPa	–
273.65 K	0.0052 kPa and 0.00519 kPa and 0.00518 kPa	0.00646 kPa
275.65 K	0.00658 kPa	0.00785 kPa
278.15 K	0.00883 kPa and 0.00884 kPa	0.00997 kPa and 0.00998 kPa
280.65 K	0.01183 kPa and 0.01185 kPa	0.01262 kPa and 0.01263 kPa
283.15 K	0.01576 kPa and 0.01575 kPa	0.0159 kPa and 0.01591 kPa and 0.01587 kPa
285.65 K	–	0.0199 kPa and 0.01992 kPa
288.15 K	–	0.02494 kPa and 0.02505 kPa and 0.02501 kPa
290.65 K	–	0.03092 kPa and 0.03099 kPa
293.15 K	–	0.03842 kPa and 0.03848 kPa and 0.03849 kPa
295.65 K	–	0.04735 kPa and 0.04742 kPa and 0.04744 kPa
298.15 K	–	0.05877 kPa and 0.05861 kPa and 0.05859 kPa
300.65 K	–	0.07124 kPa and 0.07125 kPa and 0.07143 kPa
303.15 K	–	0.08725 kPa and 0.08736 kPa
303.16 K	–	0.08722 kPa

— the NIST ThermoML archive (doi:10.1016/j.fluid.2015.06.045)
